Results taken from patent US20150291565A1, “INDOLE COMPOUNDS AND THEIR USE AS ANTIMICROBIALS” (Memorial Sloan-Kettering Cancer Center, priority 2012, published 2015).
In brackets after ≈: the same amount, converted by molar mass. Where two headings read alike, the source gives them in different places.

Legend:
K. pneumoniae ATCC 13883 = test: Broth dilution MIC, K. pneumoniae ATCC 13883; type: cell-based; details: Klebsiella pneumoniae
[1] = system: S. pneumoniae ATCC 700674 (PRSP); test: Broth dilution MIC, S. pneumoniae ATCC 700674; type: cell-based; details: Streptococcus pneumoniae
S. aureus BAA-39 (MDR) = test: Broth dilution MIC, S. aureus BAA-39; type: cell-based; details: for MIC: Staphylococcus aureus, BAA39
[2] = system: S. aureus ATCC 29213 (MSSA); test: Broth dilution MIC, S. aureus ATCC 29213; type: cell-based; details: Staphylococcus aureus
E. coli ECM 1694 = test: Broth dilution MIC, E. coli ECM 1694; type: cell-based; details: Escherichia coli
[3] = system: S. aureus ATCC 33591 (MRSA); test: Broth dilution MIC, S. aureus ATCC 33591; type: cell-based; details: for MIC: Staphylococcus aureus
[4] = system: E. faecalis ATCC 29212 (VRE); test: Broth dilution MIC, E. faecalis ATCC 29212; type: cell-based
MRSA = test: Disk diffusion assay, zone of inhibition, MRSA; type: cell-based, Staphylococcus aureus; details: disk diffusion zone of inhibition
P. aeruginosa ATCC 9027 = test: Broth dilution MIC, P. aeruginosa ATCC 9027; type: cell-based; details: Pseudomonas aeruginosa
K. pneumoniae ATCC 51503 = test: Broth dilution MIC, K. pneumoniae ATCC 51503; type: cell-based; details: Klebsiella pneumoniae
[5] = system: E. faecium ATCC 700221 (VRE); test: Broth dilution MIC, E. faecium ATCC 700221; type: cell-based
[6] = system: S. pneumoniae ATCC 6301 (PSSP); test: Broth dilution MIC, S. pneumoniae ATCC 6301; type: cell-based; details: Streptococcus pneumoniae
M. smegmatis (mc2155) = test: Disk diffusion assay, zone of inhibition, M. smegmatis; type: cell-based; details: disk diffusion zone of inhibition
E. faecium CT-26 = test: Broth dilution MIC, E. faecium CT-26; type: cell-based; details: Enterococcus faecium
C. albicans ATCC 14053 = test: Broth dilution MIC, C. albicans ATCC 14053; type: cell-based; details: Candida albicans, ATCC14053; Table 1; range 64 down to 0.12 μg/ml
Procedure: In vitro Anti-bacterial & Anti-fungal Activity Assay: All test compounds were prepared as 6.4 mg/ml stock solutions in DMSO and further diluted according to the NCCLS M7-A6 (Page 5) document with sterile water or appropriate diluent. A working stock of 256 μg/ml was used to do 1:2 serial dilutions in 96-well plates. […] The inoculums were prepared by making a direct sterile water suspension of isolated colonies from 18 to 24 hr agar plates for all organisms (Mueller Hinton, Blood Agar or SDA plates). Each bacterial suspension was adjusted to read between 0.09 and 0.11 absorbance at 620 nm. […] These were further diluted 1/100 in appropriate broth for inoculating the 96-well plates. The C. albicans suspension was adjusted to read between 70 and 75% Transmittance at 530 nm and then diluted 1/500 in RPMI+MOPS broth. All aerobic bacterial and fungal plates were incubated for 18 hrs. at 35° C. […] Plates were read using a Beckman Automated Plate Reader at 650 nm. Readings were confirmed by visual examination of plates. (See Table 1, Table 2, Table 3, and Table 4). […] It is important to note that positive results against C. albicans are often indicative of broad spectrum antifungal activity, while negative results are not necessarily conclusory of a lack of activity against other fungus.

E. coli ATCC 25922 = test: Broth dilution MIC, E. coli ATCC 25922; type: cell-based; details: Escherichia coli
[7] = ATCC13883, Table 1, range 64 down to 0.12 μg/ml, read-out: MIC K. pneumoniae ATCC 13883
[8] = ATCC13883, Table 2, broth dilution MIC in ug/ml, read-out: MIC K pneumonia ATCC 13883
[9] = Table 1, range 64 down to 0.12 μg/ml, read-out: MIC S. pneumoniae ATCC 700674
[10] = Table 2, broth dilution MIC in ug/ml, read-out: MIC S pneumonia ATCC 700674 PRSP
[11] = Table 1, range 64 down to 0.12 μg/ml, read-out: MIC S. aureus BAA-39
[12] = Table 2, broth dilution MIC in ug/ml, read-out: MIC S aureus BAA-39 MDR
[13] = Table 1, range 64 down to 0.12 μg/ml, read-out: MIC S. aureus ATCC 29213
[14] = Table 2, broth dilution MIC in ug/ml, read-out: MIC S aureus ATCC 29213 MSSA
[15] = ECM1694, Table 1, range 64 down to 0.12 μg/ml, read-out: MIC E. coli ECM 1694
[16] = ECM1694, Table 2, broth dilution MIC in ug/ml, read-out: MIC E. coli ECM 1693
[17] = Table 1, range 64 down to 0.12 μg/ml, read-out: MIC S. aureus ATCC 33591
[18] = Table 2, broth dilution MIC in ug/ml, read-out: MIC S aureus ATCC 33591 MRSA
[19] = Enterococcus faecalis, Table 1, range 64 down to 0.12 μg/ml, read-out: MIC E. faecalis ATCC 29212
[20] = Table 2, broth dilution MIC in ug/ml, read-out: MIC E faecalis ATCC 29212 VRE
[21] = ATCC 9026 / ATCC 9027, Table 2, broth dilution MIC in ug/ml, read-out: MIC P aeruginosa ATCC 9026
[22] = ATCC9027, Table 1, range 64 down to 0.12 μg/ml, read-out: MIC P. aeruginosa ATCC 9027
[23] = ATCC51503, Table 1, range 64 down to 0.12 μg/ml, read-out: MIC K. pneumoniae ATCC 51503
[24] = ATCC51503, Table 2, broth dilution MIC in ug/ml, read-out: MIC K pneumonia ATCC 51503
[25] = Enterococcus faecium, Table 1, range 64 down to 0.12 μg/ml, read-out: MIC E. faecium ATCC 700221
[26] = Table 2, broth dilution MIC in ug/ml, read-out: MIC E faecium ATCC 700221 VRE
[27] = ATCC6301, Table 1, range 64 down to 0.12 μg/ml, read-out: MIC S. pneumoniae ATCC 6301
[28] = ATCC6301, Table 2, broth dilution MIC in ug/ml, read-out: MIC S pneumonia ATCC 6301 PSSP
[29] = CT26, Table 1, range 64 down to 0.12 μg/ml, read-out: MIC E. faecium CT-26
[30] = CT26, Table 2, broth dilution MIC in ug/ml, read-out: MIC E faecium CT-25
[31] = ATCC 25921 / ATCC 25922, Table 2, broth dilution MIC in ug/ml, read-out: MIC E. coli ATCC 25921
[32] = ATCC25922, Table 1, range 64 down to 0.12 μg/ml, read-out: MIC E. coli ATCC 25922

MIC (K. pneumoniae ATCC 13883; [7])	MIC (K. pneumoniae ATCC 13883; [8])	MIC [1, 9]	MIC [1, 10]	MIC (S. aureus BAA-39 (MDR); [11])	MIC (S. aureus BAA-39 (MDR); [12])	MIC [2, 13]	MIC [2, 14]	MIC (E. coli ECM 1694; [15])	MIC (E. coli ECM 1694; [16])	MIC [3, 17]	MIC [3, 18]	MIC [4, 19]	MIC [4, 20]	MIC (P. aeruginosa ATCC 9027; [21])	MIC (P. aeruginosa ATCC 9027; [22])	MIC (K. pneumoniae ATCC 51503; [23])	MIC (K. pneumoniae ATCC 51503; [24])	MIC [5, 25]	Structure (SMILES)	Zone Size MRSA (MRSA)	further results
> 64 µg/mL	64 µg/mL (≈ 174 µM)	32 µg/mL (≈ 87.1 µM)	32 µg/mL (≈ 87.1 µM)	16 µg/mL (≈ 43.5 µM)	16 µg/mL (≈ 43.5 µM)	16 µg/mL (≈ 43.5 µM)	16 µg/mL (≈ 43.5 µM)	2 µg/mL (≈ 5.44 µM)	2 µg/mL (≈ 5.44 µM)	8 µg/mL (≈ 21.8 µM)	8 µg/mL (≈ 21.8 µM)	8 µg/mL (≈ 21.8 µM)	8 µg/mL (≈ 21.8 µM)	64 µg/mL (≈ 174 µM)	> 64 µg/mL	> 64 µg/mL	64 µg/mL (≈ 174 µM)	4 µg/mL (≈ 10.9 µM)	Nc1ccc(Nc2ccc(-c3cc4ccc(C5=NCCN5)cc4[nH]3)cc2)cc1 [SKI-8]	12 mm	MIC [5, 26]: 4 µg/mL (≈ 10.9 µM); MIC [6, 27]: 8 µg/mL (≈ 21.8 µM); MIC [6, 28]: 8 µg/mL (≈ 21.8 µM); Zone Size M. smegmatis (M. smegmatis (mc2155)): 24 mm; MIC (E. faecium CT-26; [29]): 4 µg/mL (≈ 10.9 µM); MIC (E. faecium CT-26; [30]): 4 µg/mL (≈ 10.9 µM); MIC (C. albicans ATCC 14053): 64 µg/mL (≈ 174 µM); MIC (E. coli ATCC 25922; [31]): 32 µg/mL (≈ 87.1 µM); MIC (E. coli ATCC 25922; [32]): 32 µg/mL (≈ 87.1 µM)
4 µg/mL (≈ 9.29 µM)	4 µg/mL (≈ 9.29 µM)	≤ 0.12 µg/mL	0.12 µg/mL (≈ 0.279 µM)	0.5 µg/mL (≈ 1.16 µM)	0.5 µg/mL (≈ 1.16 µM)	0.5 µg/mL (≈ 1.16 µM)	0.5 µg/mL (≈ 1.16 µM)	0.25 µg/mL (≈ 0.581 µM)	0.25 µg/mL (≈ 0.581 µM)	0.5 µg/mL (≈ 1.16 µM)	0.5 µg/mL (≈ 1.16 µM)	0.25 µg/mL (≈ 0.581 µM)	0.25 µg/mL (≈ 0.581 µM)	16 µg/mL (≈ 37.2 µM)	16 µg/mL (≈ 37.2 µM)	8 µg/mL (≈ 18.6 µM)	8 µg/mL (≈ 18.6 µM)	≤ 0.12 µg/mL	c1cnc(-c2ccc(Nc3ccc(-c4cc5ccc(C6=NCCN6)cc5[nH]4)cc3)cc2)cn1 [SKI-10]	11 mm	MIC ([1]; Table 3, starting at 4 μg/ml, read-out: MIC S. pneumoniae ATCC 700674): 0.12 µg/mL (≈ 0.279 µM); MIC S. aureus BAA-39 (S. aureus BAA-39 (MDR); Table 3, starting at 4 μg/ml): 0.5 µg/mL (≈ 1.16 µM); MIC ([2]; Table 3, starting at 4 μg/ml, read-out: MIC S. aureus ATCC 29213): 0.5 µg/mL (≈ 1.16 µM); MIC (E. coli ECM 1694; ECM1694, Table 3, starting at 4 μg/ml, read-out: MIC E. coli ECM 1694): 0.25 µg/mL (≈ 0.581 µM); MIC S. aureus ATCC 33591 ([3]; Table 3, starting at 4 μg/ml): 0.5 µg/mL (≈ 1.16 µM); MIC E. faecalis ATCC 29212 ([4]; Table 3, starting at 4 μg/ml): 0.25 µg/mL (≈ 0.581 µM); MIC ([5]; Enterococcus faecium, Table 3, starting at 4 μg/ml, read-out: MIC E. faecium ATCC 700221): 0.12 µg/mL (≈ 0.279 µM); MIC [5, 26]: 0.12 µg/mL (≈ 0.279 µM); MIC [6, 27]: ≤ 0.12 µg/mL; MIC [6, 28]: 0.12 µg/mL (≈ 0.279 µM); MIC ([6]; ATCC6301, Table 3, starting at 4 μg/ml, read-out: MIC S. pneumoniae ATCC 6301): 0.12 µg/mL (≈ 0.279 µM); Zone Size M. smegmatis (M. smegmatis (mc2155)): 14.3 mm; MIC (E. faecium CT-26; [29]): ≤ 0.12 µg/mL; MIC (E. faecium CT-26; [30]): 0.12 µg/mL (≈ 0.279 µM); MIC (E. faecium CT-26; CT26, Table 3, starting at 4 μg/ml, read-out: MIC E. faecium CT-26): 0.12 µg/mL (≈ 0.279 µM); MIC (C. albicans ATCC 14053): 8 µg/mL (≈ 18.6 µM); MIC (E. coli ATCC 25922; [31]): 2 µg/mL (≈ 4.65 µM); MIC (E. coli ATCC 25922; [32]): 2 µg/mL (≈ 4.65 µM)
